From ChEMBL document CHEMBL1201862, “PubChem BioAssay data set” (2004)
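How tested: cells in 96-well plates exposed to compound for 48 hours at five concentrations. GI50 = concentration required for 50% inhibition of growth.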 Calls of active or inactive are those of the source. Rule as the data show it: active = GI50 up to about 1.1 µM and inactive = higher.

Columns and labels:
Test in all cases: DTP human tumour cell line panel, 48 h
Malme-3M = system: Malme-3M
HCT-116 = system: HCT-116
IGROV-1 = system: IGROV-1
SF-268 = system: SF-268
UO-31 = system: UO-31
RPMI-8226 = system: RPMI-8226
SF-295 = system: SF-295
M14 = system: M14
HL-60 = system: HL-60
HOP-92 = system: HOP-92
OVCAR-8 = system: OVCAR-8
SF-539 = system: SF-539
OVCAR-4 = system: OVCAR-4
SW-620 = system: SW-620
HOP-62 = system: HOP-62
KM12 = system: KM12
COLO 205 = system: COLO 205
SK-OV-3 = system: SK-OV-3

SMILES | GI50 (Malme-3M) | GI50 (HCT-116) | GI50 (IGROV-1) | GI50 (SF-268) | GI50 (UO-31) | GI50 (RPMI-8226) | GI50 (SF-295) | GI50 (M14) | GI50 (HL-60) | GI50 (HOP-92) | GI50 (OVCAR-8) | GI50 (SF-539) | GI50 (OVCAR-4) | GI50 (SW-620) | GI50 (HOP-62) | GI50 (KM12) | GI50 (COLO 205) | GI50 (SK-OV-3)
O=c1/c(=C/c2ccccc2O)sc2nc3ccccc3n12 | 32.2 µM (inactive) | 47.3 µM (inactive) | 16.9 µM (inactive) | 16.6 µM (inactive) | 46.8 µM (inactive) | 21.2 µM (inactive) | 34.3 µM (inactive) | 47.9 µM (inactive) | 4.9 µM (inactive) | 24.4 µM (inactive) | 45 µM (inactive) | 35.5 µM (inactive) | 80.4 µM (inactive) | 40.5 µM (inactive) | – | – | – | –
CN1c2ccccc2N(C(=O)c2ccc(Cl)cc2)C(CC(=O)O)c2cccn21 (stereo unspecified) | > 100 µM (inactive) | – | > 100 µM (inactive) | > 100 µM (inactive) | > 100 µM (inactive) | > 100 µM (inactive) | > 100 µM (inactive) | > 100 µM (inactive) | > 100 µM (inactive) | > 100 µM (inactive) | > 100 µM (inactive) | > 100 µM (inactive) | > 100 µM (inactive) | > 100 µM (inactive) | > 100 µM (inactive) | > 100 µM (inactive) | > 100 µM (inactive) | > 100 µM (inactive)
O=c1nc(/C=C/c2ccccc2Cl)cc2n1CCN2CCO | > 100 µM (inactive) | > 100 µM (inactive) | > 100 µM (inactive) | 67.6 µM (inactive) | > 100 µM (inactive) | > 100 µM (inactive) | > 100 µM (inactive) | > 100 µM (inactive) | > 100 µM (inactive) | > 100 µM (inactive) | > 100 µM (inactive) | > 100 µM (inactive) | 80.2 µM (inactive) | > 100 µM (inactive) | > 100 µM (inactive) | 59.4 µM (inactive) | > 100 µM (inactive) | 43.8 µM (inactive)
CCC(=O)C(C)C(=O)C(=O)C(=O)OC (stereo unspecified) | > 100 µM (inactive) | > 62.8 µM (inactive) | > 100 µM (inactive) | > 100 µM (inactive) | > 100 µM (inactive) | > 100 µM (inactive) | > 100 µM (inactive) | > 100 µM (inactive) | > 44.4 µM (inactive) | > 100 µM (inactive) | > 100 µM (inactive) | > 100 µM (inactive) | > 100 µM (inactive) | > 26.2 µM (inactive) | > 100 µM (inactive) | > 100 µM (inactive) | > 60.5 µM (inactive) | > 100 µM (inactive)
COc1nc2c(nc(N)n2C2OCC(O)C(O)C2O)c(=O)n1C (stereo unspecified) | > 100 µM (inactive) | > 100 µM (inactive) | > 100 µM (inactive) | > 100 µM (inactive) | > 100 µM (inactive) | – | > 100 µM (inactive) | > 100 µM (inactive) | > 100 µM (inactive) | > 100 µM (inactive) | > 100 µM (inactive) | > 100 µM (inactive) | > 100 µM (inactive) | > 100 µM (inactive) | > 100 µM (inactive) | > 100 µM (inactive) | > 100 µM (inactive) | > 100 µM (inactive)
CCCOc1ccc(/C(Cl)=C(\C=O)c2ccc(OC)c(OC)c2)cc1OCCC | 0.804 µM (active) | 2.64 µM (inactive) | 27.9 µM (inactive) | 3.73 µM (inactive) | 17.6 µM (inactive) | 2.7 µM (inactive) | 13.7 µM (inactive) | 12.7 µM (inactive) | 1.84 µM (inactive) | 18 µM (inactive) | 11.9 µM (inactive) | 14.1 µM (inactive) | 7.03 µM (inactive) | 5.13 µM (inactive) | 19.8 µM (inactive) | 8.61 µM (inactive) | 4.22 µM (inactive) | 30.1 µM (inactive)
Brc1ccc2ns[s+]c2c1 | 33.5 µM (inactive) | 2.7 µM (inactive) | 26.7 µM (inactive) | 2.58 µM (inactive) | 4.36 µM (inactive) | 4.71 µM (inactive) | 4.46 µM (inactive) | 0.45 µM (active) | 2.59 µM (inactive) | 6.73 µM (inactive) | > 43.9 µM (inactive) | 4.29 µM (inactive) | > 20.9 µM (inactive) | 8.63 µM (inactive) | 5.05 µM (inactive) | 3.79 µM (inactive) | 4.91 µM (inactive) | > 100 µM (inactive)
Cc1cc(CC(=O)NCCO)n(CCO)c(=O)c1 | > 100 µM (inactive) | > 100 µM (inactive) | > 100 µM (inactive) | > 100 µM (inactive) | > 100 µM (inactive) | – | > 100 µM (inactive) | > 100 µM (inactive) | > 100 µM (inactive) | > 100 µM (inactive) | > 100 µM (inactive) | > 100 µM (inactive) | > 100 µM (inactive) | > 100 µM (inactive) | > 100 µM (inactive) | > 100 µM (inactive) | > 100 µM (inactive) | –
